Assay results as given in patent US12668589B2, “N-formamidopyrazoline derivative as P2X3 receptor antagonist and use thereof” (HANGZHOU WESTAN PHARMACEUTICAL TECHNOLOGY CO., LTD, priority 2020, dated 2026).

target: T1, human P2X3 (Homo sapiens, UniProt P56373); test: cell-based
T1 sequence (P56373 1-397): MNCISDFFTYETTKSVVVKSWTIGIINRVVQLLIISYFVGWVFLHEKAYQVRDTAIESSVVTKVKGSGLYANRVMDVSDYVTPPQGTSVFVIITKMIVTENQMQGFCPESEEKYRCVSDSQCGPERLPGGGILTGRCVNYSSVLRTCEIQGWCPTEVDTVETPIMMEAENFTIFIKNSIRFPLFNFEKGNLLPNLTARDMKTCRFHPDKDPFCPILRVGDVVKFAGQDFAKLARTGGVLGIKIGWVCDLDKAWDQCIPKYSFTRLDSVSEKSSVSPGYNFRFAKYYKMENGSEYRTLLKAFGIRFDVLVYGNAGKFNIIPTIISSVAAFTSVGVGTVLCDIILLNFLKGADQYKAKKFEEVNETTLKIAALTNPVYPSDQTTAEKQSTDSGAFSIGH
Method: An HEK293 cell line was used as cells. HEK293 cells were placed in a 37° C. incubator with 5% CO2 for culture. Passage was conducted when the cells grew to a density of 80% to 90%. A culture medium in an original 60 mm culture dish was discarded. After the cells were washed 3 times with a sterilized PBS solution, and the solution was blotted up. […] After the trypsin was blotted up, 3 mL of a cell culture medium was added to resuspend the cells. 0.5 mL of a resuspension solution was taken to be added into a new culture dish, and an total culture solution was supplemented to 5 mL. The culture dish was gently shaken to distribute the cells evenly, and then placed in a 37° C. incubator with 5% CO2 for culture.
First, treated slides were spread in a small 35 mm culture dish. 100 μL of resuspended cells were added, and then a total amount of a culture medium was supplemented to 2 mL. Target genes were transferred into the HEK293 cell line by adopting a calcium transfection method. Small dishes to be transfected were subjected to medium change 1 hour before transfection. 2 mL of a fresh cell culture solution was added. A 1.5 mL EP tube was taken, 200 μL of a 0.25 M CaCl2) solution was added, and 3 μg of plasmids to be transfected were added, and even mixing was conducted to form a DNA-CaCl2 solution. […] A pipette tip was used for mixing while adding. After adding all, gentle blowing and beating were conducted 8 to 10 times. After still standing for 5 minutes, they were added into small dishes. The small dishes were shaken slightly to mix the solution evenly, and the placed in a cell incubator. Culture mediums were replaced after 8 to 10 hours. Electrophysiological experiments were performed 24 to 48 hours after transfection.
Electrophysiological recording electrodes were obtained by two-step pulling by using an electrode puller (PP-10, Narishige). After an internal solution is injected into the electrodes, a water inlet resistance is 3 to 5 MΩ. During the experiment, a high potassium salt internal solution containing nystatin (K2SO4 of 75 mM, KCl of 120 mM, MgSO4 of 5 mM, HEPES of 10 mM, adjusting pH to 7.2 with Tris-base, and used after filtration) was used as an electrode internal solution. After the cells were sealed by the electrodes, there was no need to further break cell membranes in a sucked manner, but the cell membranes were bored through the perforation of the nystatin to the cell membranes, to form a hole channel. […] A clamping voltage was −60 mV, a sampling frequency was 10 kHz, and filtering was conducted at 2 kHz.
A working concentration of a P2X3 receptor agonist ATP was 1 μM, and an interval time between two times of ATP administrations was 10 minutes.

IC50 | Compound
231 nM | CC(=O)N(C)[C@@H]1CN(C(=O)N[C@H](C)c2cnc(C(F)(F)F)nc2)N=C1c1ccc(C)cc1 [Compound 34a, (R)-4-(N-methylacetamido)-3-(4-methylphenyl)-N-((R)-1-(2-(trifluoromethyl)pyrimidin-5-yl)ethyl)-4,5-dihydro-1H-pyrazol-1-carboxamide]
254 nM | C[C@@H](NC(=O)N1C[C@H](N2CCOCC2=O)C(c2ccc(F)cc2)=N1)c1cnc(C(F)(F)F)nc1 [Compound 33, (S)-4-(3-oxomorpholin-4-yl)-3-(4-fluorophenyl)-N-((R)-1-(2-(trifluoromethyl)pyrimidin-5-yl)ethyl)-4,5-dihydro-1H-pyrazol-1-carboxamide]
329 nM | Cc1ccc(C2=NN(C(=O)N[C@H](C)c3ccc(OC(F)(F)F)nc3)C[C@H]2N2CCCC2=O)cc1 [Compound 13a]
257 nM | Cc1ccc(C2=NN(C(=O)N[C@H](C)c3cnc(C)cn3)C[C@H]2N2CCOC2=O)cc1 [Compound 27a]
216 nM | Cc1ccc(C2=NN(C(=O)N[C@H](C)c3ccc(C(F)(F)F)cn3)C[C@@H]2N2CCCC2=O)cc1 [Compound 10]
46 nM | Cc1ccc(C2=NN(C(=O)N[C@H](C)c3ccc(C(F)(F)F)nc3)C[C@H]2N2CCOC2=O)nc1 [Compound 23a, (R)-4-(2-oxooxazolidin-3-yl)-3-(5-methylpyridin-2-yl)-N-((R)-1-(6-(trifluoromethyl)pyridin-3-yl)ethyl)-4,5-dihydro-1H-pyrazol-1-carboxamide]
331 nM | Cc1ncc([C@@H](C)NC(=O)N2C[C@H](N3CCOC3=O)C(c3ccc(Cl)cc3)=N2)cn1 [Compound 43, (S)-4-(2-oxooxazolidin-3-yl)-3-(4-chlorophenyl)-N-((R)-1-(2-methylpyrimidin-5-yl)ethyl)-4,5-dihydro-1H-pyrazol-1-carboxamide]
365 nM | C[C@@H](NC(=O)N1C[C@@H](N2CCOCC2=O)C(c2ccc(F)cc2)=N1)c1cnc(C(F)(F)F)nc1 [Compound 33a, (R)-4-(3-oxomorpholin-4-yl)-3-(4-fluorophenyl)-N-((R)-1-(2-(trifluoromethyl)pyrimidin-5-yl)ethyl)-4,5-dihydro-1H-pyrazol-1-carboxamide]
6100 nM | Cc1ccc(C2=NN(C(=O)N[C@H](C)c3cnc(C(F)(F)F)nc3)C[C@@H]2N2CCOCC2)cc1 [Compound 39, (S)-4-(morpholin-4-yl)-3-(4-methylphenyl)-N-((R)-1-(2-(trifluoromethyl)pyrimidin-5-yl)ethyl)-4,5-dihydro-1H-pyrazol-1-carboxamide]
112 nM | CC(=O)N(C)[C@@H]1CN(C(=O)N[C@H](C)c2ccc(C(F)(F)F)nc2)N=C1c1ccc(C)cc1 [Compound 25a]
169 nM | CC(=O)N(C)[C@H]1CN(C(=O)N[C@H](C)c2cnc(C(F)(F)F)nc2)N=C1c1ccc(C)cc1 [Compound 34, (S)-4-(N-methylacetamido)-3-(4-methylphenyl)-N-((R)-1-(2-(trifluoromethyl)pyrimidin-5-yl)ethyl)-4,5-dihydro-1H-pyrazol-1-carboxamide]
436 nM | Cc1ccc(C2=NN(C(=O)N[C@H](C)c3cnc(F)c(F)c3)C[C@@H]2N2CCOC2=O)cc1 [Compound 12]
218 nM | Cc1cnc([C@@H](C)NC(=O)N2C[C@H](N3CCCC3=O)C(c3ccc(F)cc3)=N2)cn1 [Compound 28, (S)-4-(2-oxopyrrolidin-1-yl)-3-(4-fluorophenyl)-N-((R)-1-(5-methylpyrazin-2-yl)ethyl)-4,5-dihydro-1H-pyrazol-1-carboxamide]
173 nM | CC(=O)N1CCN([C@H]2CN(C(=O)N[C@H](C)c3ccc(C(F)(F)F)nc3)N=C2c2ccc(C)cc2)C1=O [Compound 18, (S)-4-(3-acetyl-2-oxoimidazolidin-1-yl)-3-(4-methylphenyl)-N-((R)-1-(6-(trifluoromethyl)pyridin-3-yl)ethyl)-4,5-dihydro-1H-pyrazol-1-carboxamide]
158 nM | CC(=O)N(C)[C@H]1CN(C(=O)N[C@H](C)c2ccc(C(F)(F)F)nc2)N=C1c1ccc(C)cc1 [Compound 25]
2300 nM | Cc1ccc(C2=NN(C(=O)N[C@H](C)c3ccc(C(F)(F)F)nc3)C[C@@H]2N(C)C(=O)CN(C)C)cc1 [Compound 15, (S)-4-(2-(dimethylamino)-N-methylacetamido)-3-(4-methylphenyl)-N-((R)-1-(6-(trifluoromethyl)pyridin-3-yl)ethyl)-4,5-dihydro-1H-pyrazol-1-carboxamide]
88 nM | COC(=O)N(C)[C@@H]1CN(C(=O)N[C@H](C)c2ccc(C(F)(F)F)nc2)N=C1c1ccc(OC)cc1 [Compound 16a, (R)-4-(N-methyl-N-methoxycarbonylamino)-3-(4-methoxyphenyl)-N-((R)-1-(6-(trifluoromethyl)pyridin-3-yl)ethyl)-4,5-dihydro-1H-pyrazol-1-carboxamide]
322 nM | Cc1ccc(C2=NN(C(=O)N[C@H](C)c3cnc(F)c(F)c3)C[C@H]2N2CCOC2=O)cc1 [Compound 12a]
165 nM | Cc1cnc([C@@H](C)NC(=O)N2C[C@@H](N3CCCC3=O)C(c3ccc(F)cc3)=N2)cn1 [Compound 28a, (R)-4-(2-oxopyrrolidin-1-yl)-3-(4-fluorophenyl)-N-((R)-1-(5-methylpyrazin-2-yl)ethyl)-4,5-dihydro-1H-pyrazol-1-carboxamide]

IC50 | Compound
215 nM | C[C@@H](NC(=O)N1C[C@H](N2CCOCC2=O)C(c2ccc(Cl)cc2)=N1)c1cnc(C(F)(F)F)nc1 [Compound 35, (S)-4-(3-oxomorpholin-4-yl)-3-(4-chlorophenyl)-N-((R)-1-(2-(trifluoromethyl)pyrimidin-5-yl)ethyl)-4,5-dihydro-1H-pyrazol-1-carboxamide]
143 nM | Cc1ccc(C2=NN(C(=O)N[C@H](C)c3cnc(C(F)(F)F)cn3)C[C@@H]2N2CCOCC2=O)cc1 [Compound 26]
353 nM | CC(=O)N(C)[C@@H]1CN(C(=O)N[C@H](C)c2ccc(C(F)(F)F)cc2)N=C1c1ccc(C)cc1 [Compound 5a, (R)-4-(N-methylacetamido)-3-(4-methylphenyl)-N-((R)-1-(4-(trifluoromethyl)phenyl)ethyl)-4,5-dihydro-1H-pyrazol-1-carboxamide]
136 nM | Cc1ccc(C2=NN(C(=O)N[C@H](C)c3ccc(C(F)(F)F)cn3)C[C@H]2N2CCCC2=O)cc1 [Compound 10a]
105 nM | COc1ccc([C@@H](C)NC(=O)N2C[C@@H](N3CCOC3=O)C(c3ccc(Cl)cc3)=N2)nn1 [Compound 29a, (R)-4-(2-oxooxazolidin-3-yl)-3-(4-chlorophenyl)-N-((R)-1-(6-(methoxy)pyridazin-3-yl)ethyl)-4,5-dihydro-1H-pyrazol-1-carboxamide]
215 nM | Cc1ccc(C2=NN(C(=O)N[C@H](C)c3cnc(C(F)(F)F)nc3)C[C@@H]2N2CCOCC2=O)cc1 [Compound 3]
389 nM | Cc1ccc(C2=NN(C(=O)N[C@H](C)c3cnc(C)cn3)C[C@@H]2N2CCOC2=O)cc1 [Compound 27]
152 nM | COc1ccc([C@@H](C)NC(=O)N2C[C@H](N3CCOC3=O)C(c3ccc(Cl)cc3)=N2)nn1 [Compound 29, (S)-4-(2-oxooxazolidin-3-yl)-3-(4-chlorophenyl)-N-((R)-1-(6-(methoxy)pyridazin-3-yl)ethyl)-4,5-dihydro-1H-pyrazol-1-carboxamide]
85 nM | Cc1ccc(C2=NN(C(=O)N[C@H](C)c3ccc(C(F)(F)F)nc3)C[C@H]2N2CCCC2=O)cc1 [Compound 21a]
281 nM | CC(=O)N(C)[C@@H]1CN(C(=O)N[C@H](C)c2ccc(Cl)nc2)N=C1c1ccc(C)cc1 [Compound 11a]
793 nM | CC(=O)N1CCN([C@H]2CN(C(=O)N[C@H](C)c3ccc(C#N)cc3)N=C2c2ccc(C)cc2)C1=O [Compound 8, (S)-4-(3-acetyl-2-oxoimidazolidin-1-yl)-3-(4-methylphenyl)-N-((R)-1-(4-cyanophenyl)ethyl)-4,5-dihydro-1H-pyrazol-1-carboxamide]
127 nM | Cc1ccc(C2=NN(C(=O)N[C@H](C)c3cnc(C(F)(F)F)nc3)C[C@@H]2N2CCCC2=O)cc1 [Compound 32, (S)-4-(2-oxopyrrolidin-1-yl)-3-(4-methylphenyl)-N-((R)-1-(2-(trifluoromethyl)pyrimidin-5-yl)ethyl)-4,5-dihydro-1H-pyrazol-1-carboxamide]
357 nM | CC(=O)N(C)[C@H]1CN(C(=O)N[C@H](C)c2ccc(Cl)nc2)N=C1c1ccc(C)cc1 [Compound 11]
95 nM | CC(=O)N1CCN([C@@H]2CN(C(=O)N[C@H](C)c3ccc(C(F)(F)F)nc3)N=C2c2ccc(C)cc2)C1=O [Compound 18a, (R)-4-(3-acetyl-2-oxoimidazolidin-1-yl)-3-(4-methylphenyl)-N-((R)-1-(6-(trifluoromethyl)pyridin-3-yl)ethyl)-4,5-dihydro-1H-pyrazol-1-carboxamide]
409 nM | CC(=O)N(C)[C@H]1CN(C(=O)N[C@H](C)c2ccc(C(F)(F)F)cc2)N=C1c1ccc(C)cc1 [Compound 5]
332 nM | Cc1ccc(C2=NN(C(=O)N[C@H](C)c3cnc(C(F)(F)F)cn3)C[C@H]2N2CCOCC2=O)cc1 [Compound 26a]
422 nM | COc1ccc(C2=NN(C(=O)N[C@H](C)c3cnc(C(F)(F)F)nc3)C[C@H]2N2CCOCC2=O)cc1 [Compound 36a, (R)-4-(3-oxomorpholin-4-yl)-3-(4-methoxyphenyl)-N-((R)-1-(2-(trifluoromethyl)pyrimidin-5-yl)ethyl)-4,5-dihydro-1H-pyrazol-1-carboxamide]
529 nM | COc1ccc([C@@H](C)NC(=O)N2C[C@H](N3CCCC3=O)C(c3ccc(C)cc3)=N2)nc1 [Compound 9]
